From patent publication US11053204B2, “Pyrimidinyloxy benzene derivatives as herbicides” (FMC Corporation, priority 2015, dated 2021)

How the values were obtained:
Type in all cases: in vivo
[1] = tested on: corn (Zea mays); assay: Test A postemergence, visual injury rating; conditions: 0 is no effect, 100 is complete control; for Corn plant response rating: 31 g ai/ha, 0 to 100 scale, approximately 10 days
How it was run: (§1)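 Injury scores run from 0, no effect, to 100, complete control, judged by eye against untreated plants roughly 10 days after treatment. Chemicals carried a surfactant in a non-phytotoxic solvent and went onto loam–sand soil preemergence or onto one- to two-leaf seedlings postemergence.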

[2] = tested on: blackgrass (Alopecurus myosuroides); assay: Test A postemergence, visual injury rating; conditions: 0 is no effect, 100 is complete control; for Blackgrass plant response rating: 31 g ai/ha, 0 to 100 scale, approximately 10 days
How it was run: as §1

[3] = tested on: pigweed (Amaranthus retroflexus); assay: Test A postemergence, visual injury rating; conditions: 0 is no effect, 100 is complete control; for Pigweed plant response rating: 31 g ai/ha, 0 to 100 scale, approximately 10 days
How it was run: as §1

[4] = tested on: kochia (Kochia scoparia); assay: Test A postemergence, visual injury rating; conditions: 0 is no effect, 100 is complete control; for Kochia plant response rating: 31 g ai/ha, 0 to 100 scale, approximately 10 days
How it was run: as §1

[5] = tested on: barnyardgrass (Echinochloa crus-galli); assay: Test A postemergence, visual injury rating; conditions: 0 is no effect, 100 is complete control; for Barnyardgrass plant response rating: 31 g ai/ha, 0 to 100 scale, approximately 10 days
How it was run: as §1

[6] = tested on: giant foxtail (Setaria faberii); assay: Test A postemergence, visual injury rating; conditions: 0 is no effect, 100 is complete control; for Foxtail, Giant plant response rating: 31 g ai/ha, 0 to 100 scale, approximately 10 days
How it was run: as §1

[7] = tested on: ragweed (common ragweed, Ambrosia elatior); assay: Test A postemergence, visual injury rating; conditions: 0 is no effect, 100 is complete control; for Ragweed plant response rating: 31 g ai/ha, 0 to 100 scale, approximately 10 days
How it was run: as §1

[8] = tested on: galium (catchweed bedstraw, Galium aparine); assay: Test A postemergence, visual injury rating; conditions: 0 is no effect, 100 is complete control; for Galium plant response rating: 31 g ai/ha, 0 to 100 scale, approximately 10 days
How it was run: as §1

[9] = tested on: Italian ryegrass (Lolium multiflorum); assay: Test A postemergence, visual injury rating; conditions: 0 is no effect, 100 is complete control; for Ryegrass, Italian plant response rating: 31 g ai/ha, 0 to 100 scale, approximately 10 days
How it was run: as §1

[10] = tested on: wheat (Triticum aestivum); assay: Test A postemergence, visual injury rating; conditions: 0 is no effect, 100 is complete control; for Wheat plant response rating: 31 g ai/ha, 0 to 100 scale, approximately 10 days
How it was run: as §1

[11] = tested on: pigweed (Amaranthus retroflexus); assay: Test A preemergence, visual injury rating; conditions: for Plant response rating, Pigweed: 31 g ai/ha, 0 to 100 scale, 0 no effect, 100 complete control; for Pigweed plant response rating: 0 to 100 scale (0 no effect, 100 complete control)
How it was run: as §1

[12] = tested on: kochia (Kochia scoparia); assay: Test A preemergence, visual injury rating; conditions: for Plant response rating, Kochia: 31 g ai/ha, 0 to 100 scale, 0 no effect, 100 complete control; for Kochia plant response rating: 0 to 100 scale (0 no effect, 100 complete control)
How it was run: as §1

[13] = tested on: barnyardgrass (Echinochloa crus-galli); assay: Test A preemergence, visual injury rating; conditions: for Plant response rating, Barnyardgrass: 31 g ai/ha, 0 to 100 scale, 0 no effect, 100 complete control; for Barnyardgrass plant response rating: 0 to 100 scale (0 no effect, 100 complete control)
How it was run: as §1

[14] = tested on: giant foxtail (Setaria faberii); assay: Test A preemergence, visual injury rating; conditions: for Plant response rating, Foxtail, Giant: 31 g ai/ha, 0 to 100 scale, 0 no effect, 100 complete control; for Foxtail, Giant plant response rating: 0 to 100 scale (0 no effect, 100 complete control)
How it was run: as §1

[15] = tested on: ragweed (common ragweed, Ambrosia elatior); assay: Test A preemergence, visual injury rating; conditions: for Plant response rating, Ragweed: 31 g ai/ha, 0 to 100 scale, 0 no effect, 100 complete control; for Ragweed plant response rating: 0 to 100 scale (0 no effect, 100 complete control)
How it was run: as §1

[16] = tested on: Italian ryegrass (Lolium multiflorum); assay: Test A preemergence, visual injury rating; conditions: for Plant response rating, Ryegrass, Italian: 31 g ai/ha, 0 to 100 scale, 0 no effect, 100 complete control; for Ryegrass, Italian plant response rating: 0 to 100 scale (0 no effect, 100 complete control)
How it was run: as §1

[17] = tested on: sedge, umbrella (small-flower umbrella sedge, Cyperus difformis); assay: Test B flooded paddy test, plant response rating; conditions: 250 g ai/ha; Flood; scale of 0 to 100 where 0 is no effect and 100 is complete control; 13 to 15 days
How it was run: (§2)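 Flooded 3 cm over soil; compound into paddy water; depth kept constant. Greenhouse 13–15 d.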

[18] = tested on: barnyardgrass (Echinochloa crus-galli); assay: Test B flooded paddy test, plant response rating; conditions: 250 g ai/ha; Flood; scale of 0 to 100 where 0 is no effect and 100 is complete control; 13 to 15 days
How it was run: as §2

[19] = tested on: ducksalad (Heteranthera limosa); assay: Test B flooded paddy test, plant response rating; conditions: 250 g ai/ha; Flood; scale of 0 to 100 where 0 is no effect and 100 is complete control; 13 to 15 days
How it was run: as §2

[20] = tested on: rice (Oryza sativa); assay: Test B flooded paddy test, plant response rating; conditions: 250 g ai/ha; Flood; scale of 0 to 100 where 0 is no effect and 100 is complete control; 13 to 15 days
How it was run: as §2

SMILES | Corn plant response rating (0 to 100 scale) ([1]; 125 g ai/ha) | Blackgrass plant response rating (0 to 100 scale) ([2]; 125 g ai/ha) | Pigweed plant response rating (0 to 100 scale) ([3]; 125 g ai/ha) | Kochia plant response rating (0 to 100 scale) ([4]; 125 g ai/ha) | Barnyardgrass plant response rating (0 to 100 scale) ([5]; 125 g ai/ha) | Foxtail, Giant plant response rating (0 to 100 scale) ([6]; 125 g ai/ha) | Ragweed plant response rating (0 to 100 scale) ([7]; 125 g ai/ha) | Galium plant response rating (0 to 100 scale) ([8]; 125 g ai/ha) | Ryegrass, Italian plant response rating (0 to 100 scale) ([9]; 125 g ai/ha) | Wheat plant response rating (0 to 100 scale) ([10]; 125 g ai/ha) | Pigweed plant response rating ([11]; 125 g ai/ha) | Kochia plant response rating ([12]; 125 g ai/ha) | Barnyardgrass plant response rating ([13]; 125 g ai/ha) | Foxtail, Giant plant response rating ([14]; 125 g ai/ha) | Ragweed plant response rating ([15]; 125 g ai/ha) | Ryegrass, Italian plant response rating ([16]; 125 g ai/ha) | Plant response rating, Sedge, Umbrella [17] | Plant response rating, Barnyardgrass [18] | Plant response rating, Ducksalad [19] | Plant response rating, Rice [20] | other results
O=C(OC1CCCC1)c1c(Br)cccc1Oc1ncc(Cl)cn1 [Compound 44] | 0 | 0 | 0 | 0 | 0 | 0 | 0 | 0 | 0 | 0 | 0 | 0 | 0 | 40 | 0 | 0 | 30 | 0 | 0 | 0 | Corn plant response rating [1]: 0; Blackgrass plant response rating [2]: 0; Pigweed plant response rating [3]: 0; Kochia plant response rating [4]: 0; Barnyardgrass plant response rating [5]: 0; Foxtail, Giant plant response rating [6]: 0; Ragweed plant response rating [7]: 0; Galium plant response rating [8]: 0; Ryegrass, Italian plant response rating [9]: 0; Wheat plant response rating [10]: 0; Plant response rating, Pigweed [11]: 0; Plant response rating, Kochia [12]: 0; Plant response rating, Barnyardgrass [13]: 0; Plant response rating, Foxtail, Giant [14]: 0; Plant response rating, Ragweed [15]: 0; Plant response rating, Ryegrass, Italian [16]: 0
O=C(OCC(Cl)(Cl)Cl)c1c(Br)cccc1Oc1ncc(Cl)cn1 [Compound 45] | 20 | 0 | 100 | 50 | 20 | 20 | 10 | 100 | 0 | 0 | 70 | 0 | 0 | 10 | 0 | 0 | 0 | 0 | 0 | 0 | Corn plant response rating [1]: 0; Blackgrass plant response rating [2]: 0; Pigweed plant response rating [3]: 80; Kochia plant response rating [4]: 20; Barnyardgrass plant response rating [5]: 20; Foxtail, Giant plant response rating [6]: 20; Ragweed plant response rating [7]: 10; Galium plant response rating [8]: 50; Ryegrass, Italian plant response rating [9]: 0; Wheat plant response rating [10]: 0; Plant response rating, Pigweed [11]: 0; Plant response rating, Kochia [12]: 0; Plant response rating, Barnyardgrass [13]: 0; Plant response rating, Foxtail, Giant [14]: 0; Plant response rating, Ragweed [15]: 0; Plant response rating, Ryegrass, Italian [16]: 0
O=C(OCCCl)c1c(Br)cccc1Oc1ncc(Cl)cn1 [Compound 46] | 10 | 0 | 100 | 90 | 30 | 40 | 0 | 70 | 0 | 0 | 100 | 70 | 20 | 100 | 0 | 0 | 80 | 0 | 75 | 10 | Corn plant response rating [1]: 0; Blackgrass plant response rating [2]: 0; Pigweed plant response rating [3]: 60; Kochia plant response rating [4]: 30; Barnyardgrass plant response rating [5]: 0; Foxtail, Giant plant response rating [6]: 0; Ragweed plant response rating [7]: 0; Galium plant response rating [8]: 50; Ryegrass, Italian plant response rating [9]: 0; Wheat plant response rating [10]: 0; Plant response rating, Pigweed [11]: 50; Plant response rating, Kochia [12]: 0; Plant response rating, Barnyardgrass [13]: 0; Plant response rating, Foxtail, Giant [14]: 40; Plant response rating, Ragweed [15]: 0; Plant response rating, Ryegrass, Italian [16]: 0
O=C(OCC(F)(F)F)c1c(F)cccc1Oc1ncc(Br)cn1 [Compound 47] | 0 | 0 | 0 | 0 | 0 | 0 | 0 | 0 | 0 | 0 | 0 | 0 | 0 | 0 | 0 | 0 | 0 | 0 | 0 | 0 | Corn plant response rating (0 to 100 scale) ([1]; 500 g ai/ha): 0; Blackgrass plant response rating (0 to 100 scale) ([2]; 500 g ai/ha): 0; Pigweed plant response rating (0 to 100 scale) ([3]; 500 g ai/ha): 0; Kochia plant response rating (0 to 100 scale) ([4]; 500 g ai/ha): 0; Barnyardgrass plant response rating (0 to 100 scale) ([5]; 500 g ai/ha): 0; Foxtail, Giant plant response rating (0 to 100 scale) ([6]; 500 g ai/ha): 0; Ragweed plant response rating (0 to 100 scale) ([7]; 500 g ai/ha): 0; Galium plant response rating (0 to 100 scale) ([8]; 500 g ai/ha): 0; Ryegrass, Italian plant response rating (0 to 100 scale) ([9]; 500 g ai/ha): 0; Wheat plant response rating (0 to 100 scale) ([10]; 500 g ai/ha): 0; Pigweed plant response rating ([11]; 500 g ai/ha): 0; Kochia plant response rating ([12]; 500 g ai/ha): 0; Barnyardgrass plant response rating ([13]; 500 g ai/ha): 0; Foxtail, Giant plant response rating ([14]; 500 g ai/ha): 0; Ragweed plant response rating ([15]; 500 g ai/ha): 0; Ryegrass, Italian plant response rating ([16]; 500 g ai/ha): 0
O=C(OCC(F)(F)F)c1c(F)cccc1Oc1ncc(Cl)cn1 [Compound 48] | 0 | 0 | 20 | 0 | 0 | 0 | 0 | 0 | 0 | 0 | 0 | 0 | 0 | 0 | 0 | 0 | 0 | 20 | 0 | 20 | Corn plant response rating (0 to 100 scale) ([1]; 500 g ai/ha): 0; Blackgrass plant response rating (0 to 100 scale) ([2]; 500 g ai/ha): 20; Pigweed plant response rating (0 to 100 scale) ([3]; 500 g ai/ha): 40; Kochia plant response rating (0 to 100 scale) ([4]; 500 g ai/ha): 0; Barnyardgrass plant response rating (0 to 100 scale) ([5]; 500 g ai/ha): 30; Foxtail, Giant plant response rating (0 to 100 scale) ([6]; 500 g ai/ha): 20; Ragweed plant response rating (0 to 100 scale) ([7]; 500 g ai/ha): 0; Galium plant response rating (0 to 100 scale) ([8]; 500 g ai/ha): 10; Ryegrass, Italian plant response rating (0 to 100 scale) ([9]; 500 g ai/ha): 0; Wheat plant response rating (0 to 100 scale) ([10]; 500 g ai/ha): 0; Pigweed plant response rating ([11]; 500 g ai/ha): 0; Kochia plant response rating ([12]; 500 g ai/ha): 0; Barnyardgrass plant response rating ([13]; 500 g ai/ha): 10; Foxtail, Giant plant response rating ([14]; 500 g ai/ha): 10; Ragweed plant response rating ([15]; 500 g ai/ha): 0; Ryegrass, Italian plant response rating ([16]; 500 g ai/ha): 0
